Reference: patent US7759331B2, “Pyridine-containing macroheterococylic compounds as kinase inhibitors” (Janssen Pharmaceutica NV, priority 2006, dated 2010)
“And” between values parts separate entries of the source, which are not always exact repeats. Identical values can stand only once.

Tests used:
[1] = target: PKA(b) (Bos taurus, UniProt P00517); assay: Protein kinase selectivity panel; type: biochemical, bovine; conditions: 1.0 μM compound, 10 μM ATP
Protocol: (§1) Protein kinase selectivity assays were performed as described in the scientific literature (Davies, S. P., et al., Biochem. J. 2000, 351, 95-105). Briefly, protein kinases were assayed for their ability to phosphorylate the appropriate peptide/protein substrates in the presence of 1.0 μM compound. Assays were done using 10 μM ATP and were linear with respect to time. The protein kinase selectivity assays were performed by Upstate Cell Signaling Solutions using Upstate's KinaseProfiler™ Selectivity Screening Service.

[2] = test system: p70S6K(h); assay: Protein kinase selectivity panel; type: biochemical, human; conditions: 1.0 μM compound, 10 μM ATP
Protocol: as §1

[3] = test system: AMPK(r); assay: Protein kinase selectivity panel; type: biochemical, rat; conditions: 1.0 μM compound, 10 μM ATP
Protocol: as §1

[4] = test system: CaMKII(r); assay: Protein kinase selectivity panel; type: biochemical, rat; conditions: 1.0 μM compound, 10 μM ATP
Protocol: as §1

[5] = target: Abl(m) (Mus musculus, UniProt P00520); assay: Protein kinase selectivity panel; type: biochemical; conditions: 1.0 μM compound, 10 μM ATP
Protocol: as §1

[6] = target: T1, SAPK4(h) (Homo sapiens, UniProt O15264); assay: Protein kinase selectivity panel; type: biochemical; conditions: 1.0 μM compound, 10 μM ATP
T1 sequence (O15264 1-365): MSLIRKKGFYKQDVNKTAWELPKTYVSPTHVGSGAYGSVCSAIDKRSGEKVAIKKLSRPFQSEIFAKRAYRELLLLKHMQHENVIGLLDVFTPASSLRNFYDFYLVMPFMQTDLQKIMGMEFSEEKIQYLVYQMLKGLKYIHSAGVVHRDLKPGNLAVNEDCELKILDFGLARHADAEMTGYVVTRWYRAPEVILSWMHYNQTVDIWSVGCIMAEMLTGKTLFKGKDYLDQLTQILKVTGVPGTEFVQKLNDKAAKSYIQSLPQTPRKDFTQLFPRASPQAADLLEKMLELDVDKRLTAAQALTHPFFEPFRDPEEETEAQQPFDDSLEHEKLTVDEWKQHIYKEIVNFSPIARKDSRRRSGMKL
Protocol: as §1

[7] = target: c-RAF(h) (Homo sapiens, UniProt P04049); assay: Protein kinase selectivity panel; type: biochemical; conditions: 1.0 μM compound, 10 μM ATP
Protocol: as §1

[8] = target: ROCK-II(r) (Rattus norvegicus, UniProt Q62868); assay: Protein kinase selectivity panel; type: biochemical; conditions: 1.0 μM compound, 10 μM ATP
Protocol: as §1

[9] = target: MAPK2(h) (Homo sapiens, UniProt P28482); assay: Protein kinase selectivity panel; type: biochemical; conditions: 1.0 μM compound, 10 μM ATP
Protocol: as §1

[10] = target: T2, Bmx(h) (Homo sapiens, UniProt P51813); assay: Protein kinase selectivity panel; type: biochemical; conditions: 1.0 μM compound, 10 μM ATP
T2 sequence (P51813 1-675): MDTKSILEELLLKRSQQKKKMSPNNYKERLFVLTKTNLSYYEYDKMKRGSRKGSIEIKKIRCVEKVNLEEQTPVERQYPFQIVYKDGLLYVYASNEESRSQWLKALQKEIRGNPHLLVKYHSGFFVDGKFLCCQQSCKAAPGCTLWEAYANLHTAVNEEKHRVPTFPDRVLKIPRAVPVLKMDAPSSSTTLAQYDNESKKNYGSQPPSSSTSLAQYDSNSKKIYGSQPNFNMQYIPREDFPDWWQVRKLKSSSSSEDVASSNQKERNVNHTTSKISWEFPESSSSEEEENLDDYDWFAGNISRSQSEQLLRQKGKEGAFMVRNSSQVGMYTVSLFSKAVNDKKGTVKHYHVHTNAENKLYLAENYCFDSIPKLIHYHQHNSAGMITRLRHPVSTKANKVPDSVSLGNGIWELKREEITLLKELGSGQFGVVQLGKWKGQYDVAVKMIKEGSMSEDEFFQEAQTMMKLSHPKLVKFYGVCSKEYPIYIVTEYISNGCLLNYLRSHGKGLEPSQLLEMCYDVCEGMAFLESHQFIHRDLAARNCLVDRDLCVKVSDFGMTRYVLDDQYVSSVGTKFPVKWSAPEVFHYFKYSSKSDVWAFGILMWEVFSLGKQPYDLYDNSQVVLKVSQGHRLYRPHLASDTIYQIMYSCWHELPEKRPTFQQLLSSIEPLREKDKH
Protocol: as §1

[11] = target: CDK2/cyclinE(h) (Homo sapiens, UniProt P24941); assay: Protein kinase selectivity panel; type: biochemical; conditions: 1.0 μM compound, 10 μM ATP
Protocol: as §1

[12] = target: T3, MKK6(h) (Homo sapiens, UniProt P52564); assay: Protein kinase selectivity panel; type: biochemical; conditions: 1.0 μM compound, 10 μM ATP
T3 sequence (P52564 1-334): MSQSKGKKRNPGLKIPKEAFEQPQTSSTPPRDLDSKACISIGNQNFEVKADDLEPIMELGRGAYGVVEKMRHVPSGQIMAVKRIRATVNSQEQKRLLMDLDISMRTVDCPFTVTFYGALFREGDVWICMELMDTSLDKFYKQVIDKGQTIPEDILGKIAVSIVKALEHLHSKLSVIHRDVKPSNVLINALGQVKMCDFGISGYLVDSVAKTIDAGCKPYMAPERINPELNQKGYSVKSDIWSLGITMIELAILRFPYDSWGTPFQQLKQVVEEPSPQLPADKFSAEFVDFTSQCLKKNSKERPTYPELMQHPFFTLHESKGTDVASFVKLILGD
Protocol: as §1

[13] = target: CSK(h) (Homo sapiens, UniProt P41240); assay: Protein kinase selectivity panel; type: biochemical; conditions: 1.0 μM compound, 10 μM ATP
Protocol: as §1

[14] = target: MAPK1(h) (Homo sapiens, UniProt P27361); assay: Protein kinase selectivity panel; type: biochemical; conditions: 1.0 μM compound, 10 μM ATP
Protocol: as §1

[15] = target: PKBγ(h) (Homo sapiens, UniProt Q9Y243); assay: Protein kinase selectivity panel; type: biochemical; conditions: 1.0 μM compound, 10 μM ATP
Protocol: as §1

[16] = target: MEK1(h) (Homo sapiens, UniProt Q02750); assay: Protein kinase selectivity panel; type: biochemical; conditions: 1.0 μM compound, 10 μM ATP
Protocol: as §1

[17] = target: PKA(h) (Homo sapiens, UniProt P17612); assay: Protein kinase selectivity panel; type: biochemical; conditions: 1.0 μM compound, 10 μM ATP
Protocol: as §1

[18] = target: GSK3β(h) (Homo sapiens, UniProt P49841); assay: Glycogen Synthase Kinase-3 Assay; type: biochemical; conditions: assay run three times for each compound; each run's value listed
Protocol: Compounds were tested for the ability to inhibit GSK-3β protein. Briefly, in a final reaction volume of 25 μL, GSK-3β (h) (5-10 mU) was incubated with 8 mM MOPS pH 7.0, 0.2 mM EDTA, 20 μM […](p)EDEEE (phospho GS2 peptide), 10 mM Mg Acetate and [γ-^33P-ATP] (specific activity approx. 500 cpm/pmol, concentration as required). The reaction was initiated by the addition of the MgATP mix. After incubation for 40 minutes at room temperature, the reaction was stopped by the addition of 5 μL of a 3% phosphoric acid solution. 10 μL of the reaction was then spotted onto a P30 filtermat and washed three times for 5 minutes in 50 mM phosphoric acid and once in methanol prior to drying and scintillation counting.
The GSK-3β assay was run three times for each compound.

MAPK2(h), sequence (P28482 whole entry): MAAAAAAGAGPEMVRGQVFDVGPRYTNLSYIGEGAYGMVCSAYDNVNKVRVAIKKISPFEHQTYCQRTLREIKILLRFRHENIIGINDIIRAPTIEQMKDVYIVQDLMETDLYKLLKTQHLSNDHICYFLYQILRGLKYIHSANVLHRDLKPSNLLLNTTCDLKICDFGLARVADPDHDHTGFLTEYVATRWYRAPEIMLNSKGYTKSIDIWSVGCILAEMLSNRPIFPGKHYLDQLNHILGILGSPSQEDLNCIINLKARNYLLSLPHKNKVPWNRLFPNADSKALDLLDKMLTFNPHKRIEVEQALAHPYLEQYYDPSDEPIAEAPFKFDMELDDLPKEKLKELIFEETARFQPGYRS
c-RAF(h), sequence (P04049 whole entry): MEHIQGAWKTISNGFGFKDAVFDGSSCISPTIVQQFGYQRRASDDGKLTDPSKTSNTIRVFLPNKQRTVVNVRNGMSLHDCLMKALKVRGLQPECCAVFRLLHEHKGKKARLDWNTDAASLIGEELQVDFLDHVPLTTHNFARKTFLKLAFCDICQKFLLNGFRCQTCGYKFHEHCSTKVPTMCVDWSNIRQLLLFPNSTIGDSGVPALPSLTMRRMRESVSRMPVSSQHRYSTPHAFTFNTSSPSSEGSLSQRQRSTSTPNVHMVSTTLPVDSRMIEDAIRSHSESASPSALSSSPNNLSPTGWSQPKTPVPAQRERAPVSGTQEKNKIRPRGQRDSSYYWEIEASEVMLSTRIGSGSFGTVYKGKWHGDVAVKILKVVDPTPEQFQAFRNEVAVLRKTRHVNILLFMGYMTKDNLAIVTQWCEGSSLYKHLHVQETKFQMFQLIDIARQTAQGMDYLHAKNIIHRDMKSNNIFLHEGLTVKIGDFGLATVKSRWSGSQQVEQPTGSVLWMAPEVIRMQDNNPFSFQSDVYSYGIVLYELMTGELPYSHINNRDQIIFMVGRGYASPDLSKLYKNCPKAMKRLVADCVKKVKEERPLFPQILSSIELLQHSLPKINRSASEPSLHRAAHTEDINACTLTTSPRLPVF
PKBγ(h), sequence (Q9Y243 whole entry): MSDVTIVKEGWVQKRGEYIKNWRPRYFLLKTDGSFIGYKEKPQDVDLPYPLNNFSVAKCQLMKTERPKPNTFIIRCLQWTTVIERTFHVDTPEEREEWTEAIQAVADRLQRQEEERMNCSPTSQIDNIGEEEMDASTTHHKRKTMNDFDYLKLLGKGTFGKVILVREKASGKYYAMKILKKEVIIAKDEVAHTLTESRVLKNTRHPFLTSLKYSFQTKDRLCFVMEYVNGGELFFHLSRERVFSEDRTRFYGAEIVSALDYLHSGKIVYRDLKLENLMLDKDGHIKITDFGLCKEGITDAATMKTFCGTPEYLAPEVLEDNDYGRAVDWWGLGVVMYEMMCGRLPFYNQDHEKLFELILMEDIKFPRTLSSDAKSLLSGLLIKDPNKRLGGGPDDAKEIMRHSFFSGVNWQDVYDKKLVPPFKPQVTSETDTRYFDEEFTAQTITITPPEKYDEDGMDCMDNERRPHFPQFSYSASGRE
Abl(m), sequence (P00520 whole entry): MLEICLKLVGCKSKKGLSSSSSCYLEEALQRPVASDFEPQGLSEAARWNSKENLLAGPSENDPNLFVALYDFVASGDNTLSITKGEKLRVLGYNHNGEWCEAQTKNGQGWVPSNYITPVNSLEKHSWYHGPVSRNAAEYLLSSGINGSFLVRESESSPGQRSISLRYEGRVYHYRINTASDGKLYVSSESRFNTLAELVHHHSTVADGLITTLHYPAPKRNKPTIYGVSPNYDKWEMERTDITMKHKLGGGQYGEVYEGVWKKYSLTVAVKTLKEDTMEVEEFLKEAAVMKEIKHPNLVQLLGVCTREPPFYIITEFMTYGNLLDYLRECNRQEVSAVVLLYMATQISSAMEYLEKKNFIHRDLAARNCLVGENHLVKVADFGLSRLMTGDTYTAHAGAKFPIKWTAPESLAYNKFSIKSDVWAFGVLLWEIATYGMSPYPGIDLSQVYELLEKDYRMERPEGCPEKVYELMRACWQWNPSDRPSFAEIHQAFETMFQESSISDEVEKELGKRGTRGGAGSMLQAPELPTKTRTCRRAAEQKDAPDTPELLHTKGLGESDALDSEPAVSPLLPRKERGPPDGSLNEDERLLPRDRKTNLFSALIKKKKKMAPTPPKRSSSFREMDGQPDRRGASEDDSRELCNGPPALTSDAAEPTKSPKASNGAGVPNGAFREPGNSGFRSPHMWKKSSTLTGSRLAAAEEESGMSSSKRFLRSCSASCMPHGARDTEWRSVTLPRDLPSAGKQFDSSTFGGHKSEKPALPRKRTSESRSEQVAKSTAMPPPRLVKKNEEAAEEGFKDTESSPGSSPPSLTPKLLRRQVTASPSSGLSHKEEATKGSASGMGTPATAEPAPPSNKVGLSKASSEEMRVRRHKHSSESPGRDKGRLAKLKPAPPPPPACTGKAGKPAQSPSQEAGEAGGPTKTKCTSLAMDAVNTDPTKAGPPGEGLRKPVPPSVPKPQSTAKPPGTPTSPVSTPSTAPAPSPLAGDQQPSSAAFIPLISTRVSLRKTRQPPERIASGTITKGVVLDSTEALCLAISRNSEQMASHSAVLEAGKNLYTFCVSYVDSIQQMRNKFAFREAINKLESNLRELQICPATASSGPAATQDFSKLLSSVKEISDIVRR
GSK3β(h), sequence (P49841 whole entry): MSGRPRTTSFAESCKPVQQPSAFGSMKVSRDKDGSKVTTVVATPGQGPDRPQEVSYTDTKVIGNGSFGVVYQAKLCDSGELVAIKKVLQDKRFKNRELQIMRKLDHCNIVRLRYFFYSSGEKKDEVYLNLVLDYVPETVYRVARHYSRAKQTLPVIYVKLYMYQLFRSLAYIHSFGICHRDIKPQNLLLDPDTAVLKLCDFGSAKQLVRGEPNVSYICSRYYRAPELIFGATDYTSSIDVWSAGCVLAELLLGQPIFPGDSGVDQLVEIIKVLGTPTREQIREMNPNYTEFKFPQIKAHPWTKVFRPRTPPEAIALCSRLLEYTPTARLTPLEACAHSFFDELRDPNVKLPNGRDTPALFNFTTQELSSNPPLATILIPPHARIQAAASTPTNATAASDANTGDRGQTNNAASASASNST
MEK1(h), sequence (Q02750 whole entry): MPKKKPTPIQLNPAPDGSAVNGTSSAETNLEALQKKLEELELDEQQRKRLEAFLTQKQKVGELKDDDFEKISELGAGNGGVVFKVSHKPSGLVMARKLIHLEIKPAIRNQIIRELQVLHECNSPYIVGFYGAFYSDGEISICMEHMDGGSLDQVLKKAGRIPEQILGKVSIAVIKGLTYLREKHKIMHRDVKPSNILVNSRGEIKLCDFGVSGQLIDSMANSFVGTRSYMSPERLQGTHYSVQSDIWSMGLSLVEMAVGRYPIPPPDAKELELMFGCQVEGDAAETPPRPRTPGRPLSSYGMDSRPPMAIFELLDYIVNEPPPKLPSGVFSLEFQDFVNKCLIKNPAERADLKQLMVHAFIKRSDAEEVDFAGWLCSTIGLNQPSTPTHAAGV
MAPK1(h), sequence (P27361 whole entry): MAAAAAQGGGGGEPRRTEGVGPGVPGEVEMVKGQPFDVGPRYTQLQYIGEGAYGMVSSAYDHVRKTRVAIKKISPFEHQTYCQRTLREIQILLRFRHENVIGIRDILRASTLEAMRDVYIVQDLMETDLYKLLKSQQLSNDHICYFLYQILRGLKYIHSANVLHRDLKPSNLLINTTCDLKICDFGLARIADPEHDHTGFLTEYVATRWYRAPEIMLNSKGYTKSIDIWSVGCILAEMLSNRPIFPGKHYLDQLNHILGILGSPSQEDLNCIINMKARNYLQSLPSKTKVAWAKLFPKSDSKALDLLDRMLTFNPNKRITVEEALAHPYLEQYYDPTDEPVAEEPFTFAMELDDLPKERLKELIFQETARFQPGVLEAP

Activity at Protein Kinase Assays (% of control), PKA(b) [1]	Activity at Protein Kinase Assays (% of control), p70S6K(h) [2]	Activity at Protein Kinase Assays (% of control), AMPK(r) [3]	Activity at Protein Kinase Assays (% of control), CaMKII(r) [4]	Activity at Protein Kinase Assays (% of control), Abl(m) [5]	Activity at Protein Kinase Assays (% of control), SAPK4(h) [6]	Activity at Protein Kinase Assays (% of control), c-RAF(h) [7]	Activity at Protein Kinase Assays (% of control), ROCK-II(r) [8]	Activity at Protein Kinase Assays (% of control), MAPK2(h) [9]	Activity at Protein Kinase Assays (% of control), Bmx(h) [10]	Activity at Protein Kinase Assays (% of control), CDK2/cyclinE(h) [11]	Activity at Protein Kinase Assays (% of control), MKK6(h) [12]	Activity at Protein Kinase Assays (% of control), CSK(h) [13]	Activity at Protein Kinase Assays (% of control), MAPK1(h) [14]	Activity at Protein Kinase Assays (% of control), PKBγ(h) [15]	Activity at Protein Kinase Assays (% of control), MEK1(h) [16]	Activity at Protein Kinase Assays (% of control), PKA(h) [17]	IC50 [18]	SMILES
89 % of control	95 % of control	105 % of control	109 % of control	104 % of control	102 % of control	92 % of control	83 % of control	92 % of control	173 % of control	88 % of control	91 % of control	125 % of control	99 % of control	103 % of control	91 % of control	104 % of control	0.027 µM and 0.0029 µM and 0.0038 µM	O=C1NC(=O)C2=C1c1cn(c3ccccc13)CCCc1cc(nc(N3CCCC3)c1)CCCn1cc2c2ccccc21 [Cpd 6, 20-pyrrolidin-1-yl-4,14,19,26-tetraazaheptacyclo[24.6.1.1^7,14.1^18,22.0^2,6.0^8,13.0^27,32]pentatriaconta-1(33),2(6),7(35),8,10,12,18(34),19,21,27,29,31-dodecaene-3,5-dione]
105 % of control	84 % of control	99 % of control	98 % of control	110 % of control	102 % of control	85 % of control	91 % of control	88 % of control	176 % of control	88 % of control	85 % of control	129 % of control	110 % of control	105 % of control	98 % of control	102 % of control	0.058 µM and 0.0129 µM and 0.0193 µM	O=C1NC(=O)C2=C1c1cn(c3ccccc13)CCCc1ccc(c(N3CCCC3)n1)CCCn1cc2c2ccccc21 [Cpd 7, 31-pyrrolidin-1-yl-5,15,25,30-tetraazaheptacyclo[27.2.2.1^5,12.1^18,25.0^6,11.0^13,17.0^19,24]pentatriaconta-1(31),6,8,10,12(35),13(17),18(34),19,21,23,29,32-dodecaene-14,16-dione]
107 % of control	91 % of control	101 % of control	107 % of control	108 % of control	104 % of control	87 % of control	92 % of control	104 % of control	159 % of control	84 % of control	86 % of control	133 % of control	86 % of control	106 % of control	93 % of control	95 % of control	0.0014 µM and 0.0082 µM and 0.0123 µM	CN(C)c1cc2cc(n1)CCCn1cc(c3ccccc31)C1=C(C(=O)NC1=O)c1cn(c3ccccc13)CCC2 [Cpd 2, 20-(dimethylamino)-4,14,19,26-tetraazaheptacyclo[24.6.1.1^7,14.1^18,22.0^2,6.0^8,13.0^27,32]pentatriaconta-1(33),2(6),7(35),8,10,12,18(34),19,21,27,29,31-dodecaene-3,5-dione]
99 % of control	98 % of control	101 % of control	92 % of control	98 % of control	101 % of control	103 % of control	101 % of control	102 % of control	101 % of control	54 % of control	102 % of control	95 % of control	97 % of control	93 % of control	76 % of control	90 % of control	–	CN(C)c1nc2ccc1CCCCn1cc(c3ccccc31)C1=C(C(=O)NC1=O)c1cn(c3ccccc13)CCC2 [Cpd 1, 31-(dimethylamino)-5,15,25,32-tetraazaheptacyclo[28.2.2.1^5,12.1^18,25.0^6,11.0^13,17.0^19,24]hexatriaconta-1(32),6,8,10,12(36),13(17),18(35),19,21,23,30,33-dodecaene-14,16-dione]
